Test results taken from patent EP1170007A1, “REMEDIES” (Takara Shuzo Co, Ltd., priority 1999, dated 2000).

System: HGF production, MRC-5 cells
Experiment: Enhancement of HGF production in MRC-5 cells (ELISA)
Format: cell-based, Human
Conditions: for Increase in HGF production: 24 hours, negative control defined as 100% (7.2 ng/ml)
Experimental: MRC-5 cells (CCL171, Dainippon Pharmaceutical) were suspended in a DME medium (Bio Whittaker) containing 10% fetal calf serum at a concentration of 1 x 10^5 cells/ml. 500 µl of the suspension was placed into a 48-well cell culture plate. After culturing at 37°C in the presence of 5% CO2 for 24 hours, the medium was exchanged for a DME medium containing 1% fetal calf serum. Then, one of samples was added thereto. The plate was incubated for additional 24 hours. The medium was then recovered, and the amount of HGF in the culture medium was measured using Quantikine Human Hepatocyte Growth Factor (HGF) ELISA Kit (Funakoshi). The amount of HGF produced was expressed defining a negative control as 100%. In this case, the amount of HGF produced for the negative control was 7.2 ng/ml. Cyclopentenone (at a final concentration of 20, 40 or 160 µM), GM (at a final concentration of 20, 40, 80 or 160 µM), or dipropionylcyclopentenone (at a final concentration of 32 or 64 µM) was added as a sample. As a negative control, distilled water was added in the same volume as the sample. As a positive control, prostaglandin E1 was added at a final concentration of 0.01, 0.1, 1 or 10 µM.

O=C1C=CC(O)C1O (stereo not shown) [cyclopentenone, 4,5-dihydroxy-2-cyclopenten-1-one]
Increase in HGF production (20 µM): 144% | Increase in HGF production (40 µM): 218% | Increase in HGF production (160 µM): 238% | amount of HGF produced as compared with the negative control (result in words) (negative control: distilled water): significantly increased
